One data set deals with T1, 5-HT2A receptor (Homo sapiens, UniProt P28223).
T1 construct: host or cells: unnamed cell lines
Description: Calcium mobilization assay, agonist format, 5-HT2A receptor. The format is cell-based. The settings on record: read-out: 5-HT2A agonist Efficacy @ 10 µM. Here is the method: (§1) Protocol—in vitro testing at select 5-hydroxytryptamine (5-HT; serotonin) receptors was conducted.
(§2) • 1. Cell lines were expanded from freezer stocks according to standard procedures. • 2. Cells were seeded in a total volume of 20 μL into black-walled, clear-bottom, Poly-D-lysine coated 384-well microplates and incubated at 37° C. for the appropriate time prior to testing.
(§3) • 1. Assays were performed in 1×Dye Loading Buffer consisting of 1× Dye, 1× Additive A and 2.5 mM Probenecid in HBSS/20 mM Hepes. Probenicid was prepared fresh. • 2. Cells were loaded with dye prior to testing. Media was aspirated from cells and replaced with 20 μL Dye Loading Buffer. • 3. Cells were incubated for 30-60 minutes at 37° C.
(§4) • 1. For agonist determination, cells were incubated with sample to induce response. • 2. After dye loading, cells were removed from the incubator and 10 μL HBSS/20 mM Hepes was added. 3× vehicle was included in the buffer when performing agonist dose curves to define • the EC80 for subsequent antagonist assays. Cells were incubated for 30 minutes at room temperature in the dark to equilibrate plate temperature. • 3. Intermediate dilution of sample stocks was performed to generate 4× sample in assay buffer. • 4. Compound agonist activity was measured on a FLIPR Tetra (MDS). Calcium mobilization was monitored for 2 minutes and 10 μL 4× sample in HBSS/20 mM Hepes was added to the cells 5 seconds into the assay.
(§5) • 1. Compound activity was analyzed using CBIS data analysis suite (ChemInnovation, CA). • 2. For agonist mode assays, percentage activity is calculated using the following formula: % Activity=100%×(mean RFU of test sample−mean RFU of vehicle control)/(mean MAX RFU control ligand −mean RFU of vehicle control). • 3. For positive allosteric mode assays, percentage modulation was calculated using the following formula: % Modulation=100%×((mean RFU of test sample−mean RFU of EC20 control)/(mean RFU of MAX control ligand −mean RFU of EC20 control)). • 4. For antagonist and negative allosteric modulation mode assays, percentage inhibition is calculated using the following formula: % Inhibition=100%×(1−(mean RFU of test sample−mean RFU of vehicle control)/(mean RFU of EC80 control−mean RFU of vehicle control)).
(§6) As discussed above, agonism, or partial agonism, of the 5-HT2A receptor (also known as positive allosteric modulation, or 5-HT2A modulation) is useful for the treatment of neurological and psychiatric disorders. For example, 5-HT2A agonism has been correlated with the promotion of neural plasticity (Ly et al., 2018). Agonism of the 5-HT2B receptor has been associated with unwanted cardiac valvulopathy side-effects, a form of cardio-toxicity (Rothman et al., Circulation. 2000, 102, 2836-2841; Fitzgerald et al., Molecular Pharmacology 2000, 57, 75-81). […] Antagonists of the 5-HT2C receptor are also useful for the treatment of neurological and psychiatric disorders (Kennett et al., Neuropharmacology 1997, 36, 609-620).

In a further data set the target is T2, 5-HT2B receptor (Homo sapiens, UniProt P41595).
T2 construct: host or cells: unnamed cell lines
T2 sequence (P41595 whole entry): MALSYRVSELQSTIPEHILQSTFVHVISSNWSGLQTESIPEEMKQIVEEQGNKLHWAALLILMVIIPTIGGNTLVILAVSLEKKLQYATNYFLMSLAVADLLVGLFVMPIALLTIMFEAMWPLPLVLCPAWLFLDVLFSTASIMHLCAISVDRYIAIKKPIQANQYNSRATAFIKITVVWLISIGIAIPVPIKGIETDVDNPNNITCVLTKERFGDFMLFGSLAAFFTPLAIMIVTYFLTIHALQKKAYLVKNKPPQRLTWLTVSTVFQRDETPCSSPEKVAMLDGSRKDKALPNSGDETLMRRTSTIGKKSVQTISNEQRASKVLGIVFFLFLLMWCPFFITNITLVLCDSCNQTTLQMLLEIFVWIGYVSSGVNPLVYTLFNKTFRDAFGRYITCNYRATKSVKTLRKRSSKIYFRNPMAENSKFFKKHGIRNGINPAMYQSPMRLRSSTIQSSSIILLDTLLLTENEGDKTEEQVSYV
Description: Calcium mobilization assay, agonist format, 5-HT2B receptor. In kind it is cell-based. The conditions noted are these: read-out: 5-HT2B agonist Efficacy @ 5 µM. Here is the method: as §1, §2, §3, §4, §5, §6

The next data set has as its target T3, 5-HT2C receptor (Homo sapiens, UniProt P28335).
T3 construct: host or cells: unnamed cell lines
T3 sequence (P28335 33-458): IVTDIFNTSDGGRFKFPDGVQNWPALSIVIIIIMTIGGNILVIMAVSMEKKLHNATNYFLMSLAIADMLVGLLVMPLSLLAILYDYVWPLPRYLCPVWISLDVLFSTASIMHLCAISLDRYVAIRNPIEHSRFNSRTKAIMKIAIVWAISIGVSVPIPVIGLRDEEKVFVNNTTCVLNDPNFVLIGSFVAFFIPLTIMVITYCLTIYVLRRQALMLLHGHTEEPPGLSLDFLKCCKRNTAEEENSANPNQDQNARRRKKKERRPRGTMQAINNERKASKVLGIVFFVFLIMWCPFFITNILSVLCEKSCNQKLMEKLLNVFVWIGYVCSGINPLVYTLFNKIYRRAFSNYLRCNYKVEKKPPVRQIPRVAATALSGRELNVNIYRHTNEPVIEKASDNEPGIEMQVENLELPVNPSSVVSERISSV
Description: Calcium mobilization assay, antagonist format, 5-HT2C receptor. In kind it is cell-based. On the set-up: dose or concentration left out as unconfirmed. Here is the method: as §1, §2, §3
• 1. For antagonist determination, cells were pre-incubated with sample followed by agonist challenge at the EC80 concentration. • 2. Intermediate dilution of sample stocks was performed to generate 3× sample in assay buffer. • 3. After dye loading, cells were removed from the incubator and […] 3× sample was added. Cells were incubated for 30 minutes at room temperature in the dark to equilibrate plate temperature. Vehicle concentration was 1%. • 4. Compound antagonist activity was measured on a FLIPR Tetra (MDS). Calcium mobilization was monitored for 2 minutes and 10 μL EC80 agonist in HBSS/20 mM Hepes was added to the cells 5 seconds into the assay.
as §5, §6

The nature of data set [1]: Metabolic stability in human liver microsomes. The settings on record: values marked * average of two experiments; for CLint scaled at 0.2 μM: pH 7.4, scaled from CLint(mic). The format is in vitro ADME. Here is the method:
Microsomal Assay: Human liver microsomes (20 mg/mL) are obtained from Xenotech, LLC (Lenexa, KS). β-nicotinamide adenine dinucleotide phosphate, reduced form (NADPH), magnesium chloride (MgCl2), and dimethyl sulfoxide (DMSO) are purchased from Sigma-Aldrich.
Determination of Metabolic Stability: 7.5 mM stock solutions of test compounds of the above structural formula (e.g., of an embodiment or aspect of embodiment thereof described herein), or pharmaceutically acceptable salt thereof, are prepared in DMSO. […] The diluted microsomes are added to wells of a 96-well deep-well polypropylene plate in triplicate. […] Reactions are initiated by addition of pre-warmed NADPH solution. The final reaction volume is 0.5 mL and contains 4.0 mg/mL human liver microsomes, 0.2 μM test compound, and 2 mM NADPH in 0.1 M potassium phosphate buffer, pH 7.4, and 3 mM MgCl2. The reaction mixtures are incubated at 37° C., and […] aliquots are removed at 0, 5, 10, 20, and 30 minutes and added to shallow-well 96-well plates which contain […] of ice-cold ACN (acetonitrile) with internal standard to stop the reactions. The plates are stored at 4° C. for 20 minutes after which […] of water is added to the wells of the plate before centrifugation to pellet precipitated proteins. Supernatants are transferred to another 96-well plate and analyzed for amounts of parent remaining by LC-MS/MS using an Applied Bio-systems API 4000 mass spectrometer. The same procedure is followed for the non-deuterated counterpart of the compound and the positive control, 7-ethoxycoumarin (1 μM). Testing is done in triplicate.
Data analysis: The in vitro Ti/s for test compounds are calculated from the slopes of the linear regression of % parent remaining (In) vs incubation time relationship.
[formula] • k=−[slope of linear regression of % parent remaining (In) vs incubation time] • The apparent intrinsic clearance is calculated using the following equation: […]
Data analysis is performed using Microsoft Excel Software.

T1 sequence (P28223 whole entry): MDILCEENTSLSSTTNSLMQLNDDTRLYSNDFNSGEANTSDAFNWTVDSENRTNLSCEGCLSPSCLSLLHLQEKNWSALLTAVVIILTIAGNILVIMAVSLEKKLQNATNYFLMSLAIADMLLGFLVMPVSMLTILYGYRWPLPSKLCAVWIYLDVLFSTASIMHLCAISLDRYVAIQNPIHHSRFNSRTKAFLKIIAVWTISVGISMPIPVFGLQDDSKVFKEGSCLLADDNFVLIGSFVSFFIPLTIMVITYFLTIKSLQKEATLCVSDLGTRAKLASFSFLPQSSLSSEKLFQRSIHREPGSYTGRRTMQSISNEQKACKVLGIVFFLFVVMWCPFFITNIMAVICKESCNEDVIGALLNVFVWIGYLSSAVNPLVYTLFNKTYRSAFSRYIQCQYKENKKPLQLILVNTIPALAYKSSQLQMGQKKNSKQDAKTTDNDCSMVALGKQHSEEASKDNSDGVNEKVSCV

For `CN1CCc2[nH]c3cc(OC4CC4)ccc3c2CC1` [Compound 117, 8-(cyclopropoxy)-3-methyl-2,4,5,6-tetrahydro-1H-azepino[4,5-b]indole], the activation at 10 µM on 5-HT2A receptor stood at 10.4%. Moreover, the activation at 5 µM at 5-HT2B receptor turned out to be 1.7%. Further, the inhibition on 5-HT2C receptor came to 99.7%.

For the molecule `CN1CCc2[nH]c3cccc(S(F)(F)(F)(F)F)c3c2CC1` [Compound 110, pentafluoro-(3-methyl-2,4,5,6-tetrahydro-1H-azepino[4,5-b]indol-10-yl)-λ^6-sulfane], the activation at 10 µM on 5-HT2A receptor amounted to 8.9%. The activation at 5 µM at 5-HT2B receptor is 4%. Moreover, the inhibition at 5-HT2C receptor stood at 103%.

Regarding `COc1ccc2c3c([nH]c2c1)CCN(C1CC1)CC3` [Compound 164, 3-cyclopropyl-8-methoxy-2,4,5,6-tetrahydro-1H-azepino[4,5-b]indole], the activation at 10 µM at 5-HT2A receptor came to 61%. For the same molecule, the activation at 5 µM on 5-HT2B receptor amounted to 2.7%. On 5-HT2C receptor, the inhibition was determined as 100%.

On to `[2H]C([2H])([2H])N1CCc2[nH]c3cc(OC4CC4)ccc3c2CC1` [Compound 145, 8-cyclopropoxy-3-(^2H3)methyl-1H,2H,3H,4H,5H,6H-azepino[4,5-b]indole], for which, on 5-HT2A receptor, the activation at 10 µM is 5.8%. Further, the activation at 5 µM at 5-HT2B receptor is 1.5%. Further, the inhibition on 5-HT2C receptor was determined as 101%.

On to `c1cc2c3c([nH]c2cc1OC1CC1)CCN(C1CC1)CC3` [Compound 165, 8-cyclopropoxy-3-cyclopropyl-1,2,3,4,5,6-hexahydroazepino[4,5-b]indole], for which, on 5-HT2A receptor, the activation at 10 µM was -2.7%. Further, at 5-HT2B receptor, the activation at 5 µM was 0.9%. Further, the inhibition at 5-HT2C receptor was determined as 71.7%.

As for `CN1CCc2[nH]c3cc(C#N)ccc3c2CC1` [Compound 136, 3-methyl-2,4,5,6-tetrahydro-1H-azepino[4,5-b]indole-8-carbonitrile], the activation at 10 µM on 5-HT2A receptor was 41.8%. Moreover, the activation at 5 µM on 5-HT2B receptor is -1%. Moreover, the inhibition on 5-HT2C receptor was found to be 98.6%.

`[2H]C([2H])([2H])Oc1ccc2c3c([nH]c2c1)CCN(C1CC1)CC3` [Compound 146, 3-cyclopropyl-8-(trideuteriomethoxy)-2,4,5,6-tetrahydro-1H-azepino[4,5-b]indole]: on 5-HT2A receptor, the activation at 10 µM was found to be 69.4%. Besides, the activation at 5 µM on 5-HT2B receptor amounted to 9%. At 5-HT2C receptor, the inhibition was 103%.

As for `CN1CCc2[nH]c3cc(S(F)(F)(F)(F)F)ccc3c2CC1` [Compound 109, pentafluoro-(3-methyl-2,4,5,6-tetrahydro-1H-azepino[4,5-b]indol-8-yl)-λ^6-sulfane], at 5-HT2A receptor, the activation at 10 µM worked out at 13.7%. For the same molecule, the activation at 5 µM on 5-HT2B receptor was 8.5%. Besides, at 5-HT2C receptor, the inhibition turned out to be 101%.

As for `CN1CCc2[nH]c3c4c(ccc3c2CC1)OCC4` [Compound 124, 8-methyl-1,2,6,7,8,9,10,11-octahydroazepino[4,5-b]furo[2,3-g]indole], the activation at 10 µM on 5-HT2A receptor turned out to be 83.8%. On 5-HT2B receptor, the activation at 5 µM was -0.7%. Also, the inhibition at 5-HT2C receptor worked out at 93.1%.

Take `O=C(O)Cc1ccccc1Nc1c(Cl)cccc1Cl` [Diclofenac, reference compound]: in data set [1] (intrinsic clearance), the “CLint(mic)” value is 201.9* μL/min/mg. Also, the CLint scaled at 0.2 μM in data set [1] came out at 10.9 L/h/kg.

Consider `CN1CCc2[nH]c3cccc(C#N)c3c2CC1` [Compound 138, 3-methyl-2,4,5,6-tetrahydro-1H-azepino[4,5-b]indole-10-carbonitrile], for which the activation at 10 µM on 5-HT2A receptor was 15.4%. Also, the activation at 5 µM on 5-HT2B receptor was -0.4%. Besides, at 5-HT2C receptor, the inhibition was 100%.

On to `COc1ccc2c3c([nH]c2c1)CCN(CCO)CC3` [Compound 140, 2-(8-methoxy-2,4,5,6-tetrahydro-1H-azepino[4,5-b]indol-3-yl)ethanol], for which the activation at 10 µM on 5-HT2A receptor worked out at 48.1%. Besides, on 5-HT2B receptor, the activation at 5 µM was -0.9%. Further, the inhibition at 5-HT2C receptor was 93.8%.

Regarding `C[C@]12CC[C@H]3[C@@H](CCC4=CC(=O)CC[C@@]43C)[C@@H]1CC[C@@H]2O` [Testosterone, reference compound], the microsomal CLint at 0.2 μM in data set [1] (pH 7.4, intrinsic clearance, read-out: CLint(mic)) was 114 µL/min/mg. In addition, the CLint scaled at 0.2 μM in data set [1] was 6.17 L/h/kg.

`Cc1cc2c(cc1Cl)N(C(=O)Nc1ccc(Oc3cccnc3C)nc1)CC2` [SB242084, reference compound]: the inhibition on 5-HT2C receptor stood at 101%.

In the case of `CN1CCc2[nH]c3c4c(ccc3c2CC1)OCCC4` [Compound 122, 9-methyl-2,3,7,8,9,10,11,12-octahydro-1H-azepino[4,5-b]pyrano[2,3-g]indole], the activation at 10 µM at 5-HT2A receptor is 54%. Moreover, the activation at 5 µM at 5-HT2B receptor is -0.8%. On 5-HT2C receptor, the inhibition was 98.9%.

Regarding `CN1CCc2[nH]c3cc4c(cc3c2CC1)OCC4` [Compound 166, 8-methyl-2,3,5,6,7,8,9,10-octahydroazepino[4,5-b]furo[2,3-f]indole], on 5-HT2A receptor, the activation at 10 µM worked out at 53.5%. Besides, at 5-HT2B receptor, the activation at 5 µM was found to be 0.3%. At 5-HT2C receptor, the inhibition came out at 97.9%.

Take `COc1ccc2c3c([nH]c2c1)CCN(CCS(C)(=O)=O)CC3` [Compound 143, 8-methoxy-3-(2-methylsulfonylethyl)-2,4,5,6-tetrahydro-1H-azepino[4,5-b]indole]: the activation at 10 µM at 5-HT2A receptor was found to be 42.1%. Besides, at 5-HT2B receptor, the activation at 5 µM is -0.1%. Moreover, the inhibition at 5-HT2C receptor was 97.2%.

On to `COc1ccc2c3c([nH]c2c1)CCN(CCN(C)C)CC3` [Compound 144, 2-(8-methoxy-2,4,5,6-tetrahydro-1H-azepino[4,5-b]indol-3-yl)-N,N-dimethyl-ethanamine], for which the activation at 10 µM on 5-HT2A receptor was -0.7%. Besides, the activation at 5 µM at 5-HT2B receptor is -0.5%. For the same molecule, on 5-HT2C receptor, the inhibition is 3.1%.

The values above are taken from patent publication US20260138985A1, “Azepino-Indoles for the Treatment of Neurological and Psychiatric Disorders” (Terran Biosciences Inc., priority 2021, published 2026).
